For orientation: half-life means the time needed for the level to fall by half in the phase considered.

The text below walks through data of patent publication US20230241164A1, “C-Type Natriuretic Peptides and Methods Thereof in Treating Cancer” (PHARMAIN CORPORATION, priority 2020, published 2023).

Data set [1] deals with TRAMPC-1 mouse prostate cancer cells. The data set can be described thus: Gene expression within prostate tumor (quantitative RT-PCR). The format is in vivo, mice. Conditions: tumor harvested at day 30. How it is done:
(§1) In this study, male C57BL/6J mice (6 weeks old, male, n=10) were purchased from Kyodo (Saga, Japan) and maintained under a 12-hour light/12-hour dark cycle with free access to water and standard mouse diet (MF diet; Oriental Yeast Co., Ltd. Tokyo Japan). Mice were implanted with TRAMPC-1 mouse prostate cancer cells (1,000,000 cells/mouse) (ATCC, Manassas, Va.) in the subcutaneous. From the 19th day (averaged tumor size was 70 mm3), mice were treated with a bolus dose of long acting CNP derivative or dCNP (described in Example 1) (0.3 mg/kg s.c. or 1.0 mg/kg s.c.) in buffer [Methionine 100 mM (Tokyo Chemical Industry Co., Ltd., Tokyo, Japan); Sucrose 100 mM (Tokyo Chemical Industry Co., Ltd.); Histidine 50 mM (Tokyo Chemical Industry Co., Ltd.); in H2O (Otsuka Pharmaceutical, Tokushima, Japan)], Docetaxel (DTX 1 mg/kg i.p.) in Saline, all with or without anti-CD8 (5 mg/Kg i.p.; BioX cell; West Lebanon, N.H.) or Phosphate buffered saline (PBS) alone via i.p. All Docetaxel groups were used as mechanism of action comparator chemotherapeutic agent. Mice were treated for 2 weeks (5 days of once daily, 2 days of rest, 5 days of once-daily treatment and 2 days rest). Anti-CD8 Ab was administered every 3 days starting day 19th. Tumor was harvested at day 30 and extracted RNA, then Quantitative RT-PCR was performed; error bars are SEM. Statistical analysis was performed by Student t-tests by using GraphPad Prism *P<0.05 or **P<0.01 vs. Control group (n=3-6).

The test system is the same in data set [2]. Put plainly: Prostate cancer subcutaneous model, treatment from day 19, tumor size. It counts as in vivo, mice. How it is done: as §1, with “Pharmaceutical.” for “Pharmaceutical,”, “(DTX1” for “(DTX 1”, “total of two” for “for 2”, “sizes were measured with caliper.” for “was harvested at day 30 and extracted RNA, then Quantitative RT-PCR was performed; error bars are SEM. Statistical analysis was performed by Student t-tests by using GraphPad Prism *P<0.05 or **P<0.01 vs. Control group (n=3-6).”

The test system is the same in data set [3]. Put plainly: Prostate cancer subcutaneous model, treatment from day 6, tumor size. It counts as in vivo, mice. Conditions: Anti-CD8 Ab 5 mg/kg i.p. How it is done:
In this study, male C57BL/6J mice (6 weeks old, male, n=10) were purchased from Kyodo (Saga, Japan) and maintained under a 12-hour light/12-hour dark cycle with free access to water and standard mouse diet (MF diet; Oriental Yeast Co., Ltd. Tokyo Japan). Mice were implanted with TRAMPC-1 mouse prostate cancer cells (1,000,000 cells/mouse) (ATCC, Manassas, Va.) in the subcutaneous. From the 6th day (early stage of tumor growth), mice were treated with a bolus dose of dCNP (described in Example 1) (0.3 mg/kg s.c. or 1.0 mg/kg s.c.) with or without Anti-CD8 antibody (a-CD8; 5 mg/Kg i.p.; BioX cells, West Lebanon, N.H.) in buffer containing Methionine 100 mM (Tokyo Chemical Industry Co., Ltd., Tokyo, Japan); Sucrose 100 mM (Tokyo Chemical Industry Co., Ltd.); Histidine 50 mM (Tokyo Chemical Industry Co., Ltd.); in H2O (Otsuka Pharmaceutical, Tokushima, Japan)], Docetaxel (1 mg/kg i.p.) in Saline with or without Anti-CD8 Ab (5 mg/kg i.p.) as reference control, and or with Phosphate buffered saline (PBS) alone via i.p. as control. Mice were treated total of 14 days (5 days of once daily, 2 days of rest, 5 days of once-daily treatment and 2 days rest). Anti-CD8 Ab (a-CD8) was administered on −2, 1, 4, 7, 10 and 13th day. Tumor sizes were measured with caliper. Statistical analysis was performed by Student t-tests by using GraphPad Prism *P<0.0001 vs. Control or a-CD8 group (n=10). […]

Data set [4] in a line: Pharmacokinetic study of dCNP-s1 and dCNP-s2: plasma CNP after subcutaneous bolus in CD-1 mice. It counts as in vivo. The following applies: subcutaneous bolus 2.0 mg/Kg, FIG. 30. How it is done:
For this pharmacokinetic study, all animals (mice) for this study were maintained under a 12-hour light/12-hour dark cycle with free access to water and standard mouse diet (Lab Pico Rodent #5053; Animal Specialties, Woodburn, Oreg.). Male CD-1 mice (6-8 weeks old; Charles River, Hollister, Calif.) were treated with 2.0 mg/Kg of CNP derivative s1 (dCNP-s1; PharmaIN Corp, Bothell, Wash.), and CNP derivative s2 (dCNP-s2: PharmaIN Corp, Bothell, Wash.) via subcutaneous bolus administration between the shoulder blades.

Data set [5] can be described thus: Immune activation in normal healthy mice (blood FACS, spleen gene expression). It counts as in vivo. Conditions: normal healthy mice, 0.1, 0.3, 1.0 mg/kg s.c. day 1-5. On the procedure: In this study, male C57BL/6J mice (6 weeks old n=3) were purchased from Kyodo (Saga, Japan) and maintained under a 12-hour light/12-hour dark cycle with free access to water and standard mouse diet (MF diet; Oriental Yeast Co., Ltd. Tokyo Japan). Mice were treated with a bolus dose of 0, 0.1, 0.3, and 1.0 mg/kg CNP derivative or dCNP (described in Example 1) in buffer (Methionine 100 mM (Tokyo Chemical Industry Co., Ltd., Tokyo, Japan), sucrose 100 mM (Tokyo Chemical Industry Co., Ltd.), histidine 50 mM (Tokyo Chemical Industry Co., Ltd.); in H2O (Otsuka Pharmaceutical, Tokushima, Japan)) or buffer alone (for control group). Administration is by bolus subcutaneous injection under isoflurane anesthesia, at day 1, 2, 3, 4, and 5. Blood was harvested on day 5 under the isoflurane vapor and plasma were obtained by added EDTA and red blood cells were removed by pharma lyse (BD, Franklin Lakes, N.J.). Cells were analyzed by FACS (BD, Franklin lakes, NJ). The spleen was harvested on day 5 under isoflurane vapor, then placed in the Tri reagent (Cosmobio, Tokyo, Japan) for further analysis. Statistical analysis was performed by Student t-tests by using GraphPad Prism *P<0.05 vs. Control. **P<0.01 vs Control (n=5).

For data set [6] the following is noted: bolus injection, healthy human volunteers; cited from earlier work.
A short description of data set [7]: Pharmacokinetic study: plasma CNP (ELISA) after subcutaneous bolus in CD-1 mice. Conditions: subcutaneous 2.0 mg/Kg, FIG. 1A. How it is done:
All test articles were formulated or dissolved in 100 mM sorbitol, 100 mM methionine, 20 mM histidine, pH 6.0. […] Blood samples were processed in K2EDTA tubes to obtain plasma. Plasma was analyzed by commercially available CNP ELISA kit from Phoenix Pharmaceuticals (cat #EKE-012-03). […] [SEQ ID NO. 6]. […] The details of the polymer are described in Castillo et al., Pharm. Res., (2012) 29(1); p 306-18, herein incorporated by reference in its entirety.
Error bars represent standard deviation of n=5 plasma samples.
(In general: ELISA stands for enzyme-linked immunosorbent assay.)

For data set [8] the following is noted: species not stated; cited from earlier work.

Several values for one entry are separate records, joined by “and”; a condition that tells them apart may be missing. Equal values may be shown once. Numbered stars: 1 amine (or outer) side, 2 acyl side, 3 side chain; on linkers, the order of the positions; unused ones are H or OH. Bridge positions count the residues as written; N and C are the ends. Square brackets hold non-standard residues; d marks the D form. Peptide text beside a SMILES is read from it. * marks the point of attachment. C18 diacid = O=C(O)CCCCCCCCCCCCCCCCC(=O)*; γGlu = O=C(O)[C@H](CCC(=O)[*:2])N[*:1]; Aad = N[C@@H](CCCC(=O)O)C(=O)O; AEEA = NCCOCCOCC(=O)O

On to `CC(=O)O[C@@]12CO[C@@H]1C[C@H](O)[C@@]1(C)C(=O)[C@H](O)C3=C(C)[C@@H](OC(=O)[C@H](O)[C@@H](NC(=O)OC(C)(C)C)c4ccccc4)C[C@@](O)([C@@H](OC(=O)c4ccccc4)[C@H]21)C3(C)C` [Docetaxel], for which, in data set [1], the “Ang 2 gene expression within the prostate tumor” value was “not”, the “TGFβ gene expression within the prostate tumor” value is listed as “not” and the “alpha-smooth muscle actin (α-SMA) gene expression within the prostate tumor” value was “not”. Besides, the “anti-tumor effect with anti-CD8 antibody” value in data set [2] (anti-CD8 5 mg/Kg i.p.) is “could not be neutralized by Anti-CD8”. For the same compound, in data set [3], the “tumor growth suppressing effect in the presence of Anti-CD8 antibody” value is “remained”.

For `CC[C@H](C)[C@@H]1NC(=O)[C@H](CCCNC(=N)N)NC(=O)[C@H](CC(=O)O)NC(=O)[C@H](CC(C)C)NC(=O)[C@H](CCCCN)NC(=O)[C@H](CC(C)C)NC(=O)CNC(=O)[C@H](Cc2ccccc2)NC(=O)[C@@H](NC(=O)CNC(=O)COCCOCCNC(=O)COCCOCCNC(=O)CCCCCCCCCCCCCCCCC(=O)O)CSSC[C@@H](C(=O)O)NC(=O)CNC(=O)[C@H](CC(C)C)NC(=O)CNC(=O)[C@H](CO)NC(=O)[C@H](CCCC(N)=O)NC(=O)[C@H](CO)NC(=O)CNC1=O` [dCNP-s1] ({C18 diacid-AEEA-AEEA}-GCFGLKLDRIGS[Aad](NH2)SGLGC-OH; disulfide 2-18), in data set [4], the “blood level of CNP relative to native CNP at similar weight/Kg dose” value is on record as 10 fold.

Take `CC[C@H](C)[C@@H]1NC(=O)[C@H](CCCNC(=N)N)NC(=O)[C@H](CC(=O)O)NC(=O)[C@H](CC(C)C)NC(=O)[C@H](CCCCN)NC(=O)[C@H](CC(C)C)NC(=O)CNC(=O)[C@H](Cc2ccccc2)NC(=O)[C@@H](NC(=O)CNC(=O)COCCOCCNC(=O)COCCOCCNC(=O)CC[C@H](NC(=O)CCCCCCCCCCCCCCCCC(=O)O)C(=O)O)CSSC[C@@H](C(=O)O)NC(=O)CNC(=O)[C@H](CC(C)C)NC(=O)CNC(=O)[C@H](CO)NC(=O)[C@H](CCCC(N)=O)NC(=O)[C@H](CO)NC(=O)CNC1=O` [dCNP-s2] ({C18 diacid-γGlu-AEEA-AEEA}-GCFGLKLDRIGS[Aad](NH2)SGLGC-OH; disulfide 2-18): in data set [4], the “blood level of CNP relative to native CNP at similar weight/Kg dose” value is listed as 10 fold.

`CCCCCCCCCCCCCCCCCC(=O)N[C@@H](CCCCN)C(=O)N[C@@H](CCCCN)C(=O)N[C@@H](CCCCN)C(=O)N[C@@H](CCCCN)C(=O)NCC(=O)NCC(=O)NCC(=O)NCC(=O)N[C@@H](CC(C)C)C(=O)N[C@@H](CO)C(=O)N[C@@H](CCCCN)C(=O)NCC(=O)N[C@H]1CSSC[C@@H](C(=O)O)NC(=O)CNC(=O)[C@H](CC(C)C)NC(=O)CNC(=O)[C@H](CO)NC(=O)[C@H](CCSC)NC(=O)[C@H](CO)NC(=O)CNC(=O)[C@H]([C@@H](C)CC)NC(=O)[C@H](CCCNC(=N)N)NC(=O)[C@H](CC(=O)O)NC(=O)[C@H](CC(C)C)NC(=O)[C@H](CCCCN)NC(=O)[C@H](CC(C)C)NC(=O)CNC(=O)[C@H](Cc2ccccc2)NC1=O` [dCNP]: in data set [5], the “cytotoxic (CD8) T-cells in blood” value was “increase”. In data set [2] (TRAMPC-1 tumor bearing mice), the lethality result is given as “less lethal than cytotoxic chemotherapeutic agent (Docetaxel)”.

For `CC[C@H](C)[C@@H]1NC(=O)[C@H](CCCNC(=N)N)NC(=O)[C@H](CC(=O)O)NC(=O)[C@H](CC(C)C)NC(=O)[C@H](CCCCN)NC(=O)[C@H](CC(C)C)NC(=O)CNC(=O)[C@H](Cc2ccccc2)NC(=O)[C@@H](NC(=O)CNC(=O)[C@H](CCCCN)NC(=O)[C@H](CO)NC(=O)[C@H](CC(C)C)NC(=O)CN)CSSC[C@@H](C(=O)O)NC(=O)CNC(=O)[C@H](CC(C)C)NC(=O)CNC(=O)[C@H](CO)NC(=O)[C@H](CCSC)NC(=O)[C@H](CO)NC(=O)CNC1=O` [native CNP], in data set [6], the heart rate entry was “significant increase”; the “systolic and diastolic blood pressure” value was “significant decrease”. In data set [7], the “plasma CNP” value is “low plasma level”. Besides, the half-life in data set [8] was 2 to 13 min and 2 min.
